# Results from PMC3362725, “An open-label, phase 1 study evaluating safety, tolerability, and pharmacokinetics of linifanib (ABT-869) in Japanese patients with solid tumors” (Cancer Chemotherapy and Pharmacology, 2012).
# Where “and” joins values, the source holds several entries; their conditions need not be identical. Identical values can stand only once. Like-named read-outs stand apart in the source and are kept apart here.
# What was measured:
# [1] = parameters: method as in PMID 19720910; conditions: non-Japanese Asian patients, 0.10–0.30 mg/kg single dose, mean ± SD, N 31; calculated from ref 14; cited from earlier work
# [2] = Pharmacokinetics of oral linifanib in plasma and urine, non-compartmental analysis, phase 1 study; format: in vivo, human (Japanese patients with solid tumors); conditions: for DN AUC24 / DN C max: dose-normalized; for AUC: read-out: AUC24
# Experimental: Pharmacokinetic sampling occurred pre-dose and 0.5, 1, 2, 3, 4, 6, 8, and 24 h after single-dose linifanib on Cycle (C) 1D1, and pre-dose and 0.5, 1, 2, 3, 4, 6, and 8 h after multiple once-daily doses on C1D15. Urine was collected for 24-h after the C1D15 dose. Linifanib and its metabolite concentrations in plasma and urine were determined using a validated method based on triple quadruple tandem mass spectrometry with a lower limit of quantification of 1.0 ng/mL.
# Pharmacokinetic parameter (defined in Table 3) concentrations were determined by non-compartmental analysis using WinNonlin Professional v.5.2 (Pharsight Corp., Cary, NC). […] Additional samples were collected at C3D1 (pre-dose) and every second cycle until study completion or until C15D1. Concentrations for samples at C3D1 and subsequent samples, and data from C1D1 to C1D15 were included in the nonlinear mixed effects models to explore covariates such as age, body weight, and gender (data not shown). Following single-dose linifanib at 0.25 mg/kg, a post hoc analysis compared the pharmacokinetics between the Japanese patients in the current study and non-Japanese patients in two phase 1 studies: Caucasian patients receiving […] linifanib (Abbott, unpublished) and the non-Japanese segment of Asian patients receiving 0.10–0.30 mg/kg linifanib.
# HT1080 fibrosarcoma = tested on: HT1080 fibrosarcoma; parameters: method as in PMID 16648571; conditions: predicted based on preclinical murine HT1080 fibrosarcoma model; cited from earlier work
# [3] = parameters: method as in earlier work; conditions: Caucasian patients, 0.25 mg/kg single dose, mean ± SD, N 13; cited from earlier work
# PlGF = assay: Plasma PlGF biomarker (Abbott Architect kits); format: in vivo, human (Japanese patients with solid tumors)
# Experimental: Plasma for biomarker analysis was collected before linifanib administration on C1D1, C1D15, C2D1, and at the final visit. Concentration of PlGF was determined using Abbott Architect® kits. The relationship of PlGF levels to outcomes was assessed post hoc. To assess the relationship between PlGF induction and toxicity, patients were grouped into those requiring and not requiring dose interruption during the first 30 days of therapy. Median PlGF increase from baseline to C1D15 was compared as a function of toxicity group. To assess the relationship between PlGF induction and efficacy, patients were segregated into those with progressive disease (PD; N = 6) or stable disease (SD; N = 10) at C6, and PlGF increase from baseline to C1D15 was compared.
# [4] = parameters: method as in PMID 19720910; conditions: cited from earlier work
# solid tumors = assay: Tumor response per RECIST (CT or MRI), phase 1 study; format: in vivo, human (Japanese patients with solid tumors)
# Experimental: Baseline evaluations included physical examination, body weight, vital signs, 12-lead electrocardiogram, ECOG PS assessment, pregnancy test, laboratory tests, and multiple-gated acquisition scan/echocardiogram. Tumor response and/or disease progression was assessed by computerized tomography (CT) scan or magnetic resonance imaging (MRI) per RECIST [20] at screening and on Day (D) 1 of every second cycle prior to the subsequent treatment period, until tumor progression or until final visit. Complete response and partial response (PR) were defined according to RECIST [20]; objective response rate (ORR) was defined as the proportion of patients with best response of PR or CR among the study population. Safety assessments included laboratory test results and adverse events (AEs), which were graded according to CTCAE v3 [18] and coded by medical dictionary of regulatory activities (MedDRA) 1.0.
# [5] = 0.05 mg/kg once daily, multiple dose (C1D15), mean ± SD, N 3
# [6] = 0.05 mg/kg oral, single dose (C1D1), mean ± SD, N 3
# [7] = 0.10 mg/kg once daily, multiple dose (C1D15), mean ± SD, N 5
# [8] = 0.10 mg/kg oral, single dose (C1D1), mean ± SD, N 6
# [9] = 0.20 mg/kg once daily, multiple dose (C1D15), mean ± SD, N 3
# [10] = 0.20 mg/kg oral, single dose (C1D1), mean ± SD, N 3
# [11] = 0.25 mg/kg once daily, multiple dose (C1D15), mean ± SD, N 5
# [12] = 0.25 mg/kg oral, single dose (C1D1), mean ± SD, N 6
# [13] = human, plasma, 0.1 mg/kg, 0.10 mg/kg oral, single dose (C1D1), mean ± SD, N 6
# [14] = human, plasma, 0.2 mg/kg, 0.20 mg/kg oral, single dose (C1D1), mean ± SD, N 3
# [15] = human, plasma, 0.05 mg/kg oral, single dose (C1D1), mean ± SD, N 3
# [16] = human, plasma, 0.25 mg/kg oral, single dose (C1D1), mean ± SD, N 6
smiles,measurement,setting,value
"Cc1ccc(F)c(NC(=O)Nc2ccc(-c3cccc4[nH]nc(N)c34)cc2)c1 [linifanib, N-(4-(3-amino-1H-indazol-4-yl)phenyl)-N’-(2-fluoro-5-methylphenyl)urea]",DN AUC24,[1],0.25 ± 0.10 µg·h/mL/mg
same,DN C max,[1],0.020 ± 0.008 µg/mL/mg
same,T max,[1],2.94 ± 1.27 h
same,R (accumulation ratio calculated as DN AUC24 between D15 and D1),"[2]; 0.05 mg/kg once daily, mean ± SD, N 3",1.58 ± 0.34
same,R (accumulation ratio calculated as DN AUC24 between D15 and D1),"[2]; 0.10 mg/kg once daily, mean ± SD, N 5",1.46 ± 0.27
same,R (accumulation ratio calculated as DN AUC24 between D15 and D1),"[2]; 0.20 mg/kg once daily, mean ± SD, N 3",1.56 ± 0.08
same,R (accumulation ratio calculated as DN AUC24 between D15 and D1),"[2]; 0.25 mg/kg once daily, mean ± SD, N 5",1.46 ± 0.23
same,dose proportionality of pharmacokinetics,"[2]; 0.10–0.25 mg/kg, single and once-daily dosing",dose-proportional
same,DN AUC24,[2]; [5],0.77 ± 0.18 µg·h/mL/mg
same,DN C max,[2]; [5],0.051 ± 0.007 µg/mL/mg
same,DN AUC24,[2]; [6],0.49 ± 0.08 µg·h/mL/mg
same,DN C max,[2]; [6],0.036 ± 0.007 µg/mL/mg
same,DN AUC24,[2]; [7],0.50 ± 0.11 µg·h/mL/mg
same,DN C max,[2]; [7],0.034 ± 0.008 µg/mL/mg
same,DN AUC24,[2]; [8],0.33 ± 0.04 µg·h/mL/mg
same,DN C max,[2]; [8],0.026 ± 0.004 µg/mL/mg
same,DN AUC24,[2]; [9],0.52 ± 0.02 µg·h/mL/mg
same,DN C max,[2]; [9],0.036 ± 0.003 µg/mL/mg
same,DN AUC24,[2]; [10],0.33 ± 0.01 µg·h/mL/mg
same,DN C max,[2]; [10],0.028 ± 0.007 µg/mL/mg
same,DN AUC24,[2]; [11],0.37 ± 0.06 µg·h/mL/mg
same,DN C max,[2]; [11],0.028 ± 0.002 µg/mL/mg
same,DN AUC24,[2]; [12],0.25 ± 0.02 µg·h/mL/mg
same,DN C max,[2]; [12],0.019 ± 0.004 µg/mL/mg
same,Cmax,[2]; [13],152 ± 36 ng/mL
same,AUC,[2]; [13],1910 ± 380 ng·h/mL
same,Tmax,"[2]; human, plasma, 0.1 mg/kg, 0.10 mg/kg oral, single dose (C1D1), mean ± SD, N 6, read-out: T max",1.67 ± 0.52 h
same,Cmax,[2]; [14],305 ± 70 ng/mL
same,AUC,[2]; [14],3600 ± 430 ng·h/mL
same,Tmax,"[2]; human, plasma, 0.2 mg/kg, 0.20 mg/kg oral, single dose (C1D1), mean ± SD, N 3, read-out: T max",1.67 ± 0.57 h
same,Cmax,"[2]; human, plasma, oral, 0.1 mg/kg, 0.10 mg/kg once daily, multiple dose (C1D15), mean ± SD, N 5",186 ± 64 ng/mL
same,Tmax,"[2]; human, plasma, oral, 0.1 mg/kg, 0.10 mg/kg once daily, multiple dose (C1D15), mean ± SD, N 5, read-out: T max",2.2 ± 0.45 h
same,AUC,"[2]; human, plasma, oral, 0.1 mg/kg, 0.10 mg/kg once daily, multiple dose (C1D15), pre-dose concentration assumed equal to 24 h, mean ± SD, N 5",2820 ± 1030 ng·h/mL
same,Cmax,"[2]; human, plasma, oral, 0.2 mg/kg, 0.20 mg/kg once daily, multiple dose (C1D15), mean ± SD, N 3",390 ± 41 ng/mL
same,Tmax,"[2]; human, plasma, oral, 0.2 mg/kg, 0.20 mg/kg once daily, multiple dose (C1D15), mean ± SD, N 3, read-out: T max",2.33 ± 0.58 h
same,AUC,"[2]; human, plasma, oral, 0.2 mg/kg, 0.20 mg/kg once daily, multiple dose (C1D15), pre-dose concentration assumed equal to 24 h, mean ± SD, N 3",5630 ± 920 ng·h/mL
same,half-life,"[2]; human, plasma, oral, after repeated daily dosing, associated with accumulation ratio 1.5, read-out: effective half-life (converted)",900 min
same,Cmax,"[2]; human, plasma, oral, 0.05 mg/kg once daily, multiple dose (C1D15), mean ± SD, N 3",128 ± 17 ng/mL
same,Tmax,"[2]; human, plasma, oral, 0.05 mg/kg once daily, multiple dose (C1D15), mean ± SD, N 3, read-out: T max",2.34 ± 0.57 h
same,AUC,"[2]; human, plasma, oral, 0.05 mg/kg once daily, multiple dose (C1D15), pre-dose concentration assumed equal to 24 h, mean ± SD, N 3",1920 ± 450 ng·h/mL
same,Cmax,"[2]; human, plasma, oral, 0.25 mg/kg once daily, multiple dose (C1D15), mean ± SD, N 5",418 ± 55 ng/mL
same,Tmax,"[2]; human, plasma, oral, 0.25 mg/kg once daily, multiple dose (C1D15), mean ± SD, N 5, read-out: T max",2.2 ± 0.45 h
same,AUC,"[2]; human, plasma, oral, 0.25 mg/kg once daily, multiple dose (C1D15), pre-dose concentration assumed equal to 24 h, mean ± SD, N 5",5460 ± 1160 ng·h/mL
same,Cmax,[2]; [15],90 ± 18 ng/mL
same,AUC,[2]; [15],1230 ± 210 ng·h/mL
same,Tmax,"[2]; human, plasma, 0.05 mg/kg oral, single dose (C1D1), mean ± SD, N 3, read-out: T max",1.65 ± 0.56 h
same,Cmax,[2]; [16],305 ± 68 ng/mL
same,AUC,[2]; [16],3780 ± 480 ng·h/mL
same,Tmax,"[2]; human, plasma, 0.25 mg/kg oral, single dose (C1D1), mean ± SD, N 6, read-out: T max",2.33 ± 1.03 h
same,Tmax,"[2]; human, plasma, across all dose levels (0.05–0.25 mg/kg oral), read-out: average T max",~2 h
same,efficacious plasma exposure at steady state,HT1080 fibrosarcoma,≥ 2.7 µg·h/mL
same,DN AUC24,[3],0.21 ± 0.04 µg·h/mL/mg
same,DN C max,[3],0.018 ± 0.005 µg/mL/mg
same,T max,[3],1.77 ± 0.44 h
same,induction of PlGF on C1D15 and C2D1,PlGF; 0.05–0.25 mg/kg once daily,dose-dependent
same,median (±SD) increase in PlGF from baseline to C1D15,PlGF; 11 patients with dose interruption in first 30 days,79.9 (±55.0) pg/mL
same,PlGF change from baseline to C1D15 as a function of response classification,"PlGF; PD (n = 6) versus SD (n = 10) at C6, p = 0.7",No statistically significant difference
same,median (±SD) increase in PlGF from baseline to C1D15,"PlGF; five patients without dose interruption in first 30 days, ±16.2",22.8 pg/mL
same,PlGF concentration at the final visit,PlGF; patients no longer on therapy,returned to near baseline levels
same,patients with Grade 3 hypertension,"[4]; non-Japanese Asian patients, recommended phase 2 dose",8%
same,recommended phase 2 dose,[4]; prior phase 1 study in non-Japanese,0.25 mg/kg
same,ORR,"solid tumors; 2 of 18 patients, RECIST",11.1%
same,patients with tumor reduction >5% by RECIST,solid tumors; 12/18 patients,67%
same,patients with SD for ≥12 weeks,solid tumors; 18 patients,11
same,patients with confirmed PR,"solid tumors; 18 patients, 0.20 mg/kg (breast cancer) and 0.25 mg/kg (lung cancer)",Two
same,patients with reduction in summed tumor dimensions of ≥5%,"solid tumors; of the 18 patients, cohorts 0.10, 0.20, and 0.25 mg/kg",12 and 12/18
same,median duration of response,solid tumors; range 2.8–3.5,3.2 months
same,median progression-free survival (PFS),solid tumors; range 2.8–9.8,5.7 months
same,patients who continued linifanib with clinical benefit for ≥48 weeks,"solid tumors; sarcoma, breast, lung, thymic cancer, best response SD",Four
